Source: ChEMBL document CHEMBL1129183, “Correlation of oxidation potential and toxicity in thiobenzamides” (Bioorg Med Chem Lett, 1996)

Experiment: Lethal dose to rats was determined
Format: toxicity
Conditions: rat, in vivo

Row | SMILES | Dose
1 | Cc1ccc(C(N)=S)cc1 | 2 mM/kg
2 | COc1ccc(C(N)=S)cc1 | 2 mM/kg
